How the values were obtained:
Format in all cases: cell-based, human
[1] = test system: Pgp+ (DiOC2(3)-dye effluxing) T cells; assay: DiOC2(3) dye efflux flow cytometry of inhibitor-treated T cells; conditions: treatment for 13 days, IL2 + CD3 and CD28 antibodies
Protocol: (§1) The use of P-glycoprotein (Pgp)-mediated efflux of DiOC2(3) to isolate stem like T cells for adoptive cellular therapy has been described in application no. […] In the following examples, DiOC2(3) staining was used to study the effect of different inhibitors on generation of stem like T cells.
(§2) DAY 0: Blood was obtained from unidentified donor. After RBC lysis, PBMC were collected using Ficoll-Hypaque separation. […] T cells were cultured in three different conditions: • 1. XVIVO 15 medium (Lonza) with IL2 50 IU/ml, CD3 antibody (30 ng/ml) and CD28 antibody (30 ng/ml). • 2. XVIVO 15 medium (Lonza) with CD3 antibody (30 ng/ml) and CD28 antibody (30 ng/ml). • 3. XVIVO 15 medium (Lonza) with IL2 50 IU/ml DAY 1: Cells were plated in a 6-well plate at a density of 1 million cells in 2 ml/of media (as described above) and treated with different inhibitors
(§3) The cell growth medium was changed in 6-well plates and fresh drugs were added at same concentration for one more week.
(§4) […] (DAY 11): Culture medium was changed and fresh drugs were added in 6-well plates.
(§5) Subsequently, cells were washed with RPMI medium and dye was effluxed at 37° C. for 90 min. Cells were washed with […], stained with CD62L-APC (5 μl/100 μl/sample) at 4° C. for 1 h, washed twice with PBS+1% FBS and analyzed on flow cytometer to check if these drugs treatment leads to increase in Pgp+/CD62L positive population.
(§6) Day 0: Blood was obtained from unidentified donor. After RBC lysis, PBMC were collected using Ficoll-Hypaque separation. 200 million T cells were isolated from PBMCs using CD3 microbeads. T cells were cultured overnight in XVIVO 15 medium (Lonza) with IL2 (50 IU/ml), 30 ng/ml of CD3 and CD28 antibodies
(§7) Day 1: Cells were plated in 24-well plates at a density of 0.3 million cells/ml in each well and treated with different drugs.
(§8) On day 7, culture medium was replaced with fresh medium with fresh drugs.
(§9) On day 13, culture medium was replaced with fresh medium and fresh drugs. Half of the cells were transferred to 6-well plates.
(§10) Day 14: An aliquot of cells with all the treatments listed above (for 13 days) was used to stain the cells with DiOC2(3) (60 ng/ml in RPMI medium) at 4° C. for 40 min, washed with RPMI medium, DiOC2(3) dye was effluxed at 37° C. for 90 min, washed with PBS+1% FBS, stained with CD62L-APC antibody. CD62L is a marker for resting T cells. (5 μl/100 μl/sample) at 4° C. for 1 h, washed twice with PBS+1% FBS and analyzed on flow cytometer to check if these drugs are affecting the dye-effluxing or Pgp+ (i.e., DiOC2(3)-dull) T-cell population.

[2] = test system: Pgp+ (DiOC2(3)-dye effluxing cells) and CD62L+ T cells; assay: DiOC2(3) dye efflux plus CD62L-APC staining, flow cytometry of inhibitor-treated T cells; conditions: treatment for 13 days, IL2 + CD3 and CD28 antibodies
Protocol: as §1, §2, §3, §4, §5, §6, §7, §8, §9, §10

[3] = test system: CD8+CD45RA+CCR7+CD62L+ T cells; assay: Flow cytometry for CD8, CD45RA, CCR7 and CD62L on inhibitor-treated T cells; conditions: cells cultured for 14 days
Protocol: as §2
(§11) A second aliquot of the cells cultured for 13 days with all the treatments listed above (1-21) was washed with PBS+1% FBS, stained with CD8-PerCP, CD45RA-FITC, CCR7-PE and CD62L-APC (5% Y/100 μl/sample for each of 4 antibodies) at 4° C. for 1 h, washed twice with PBS+100 FBS and analyzed on flow cytometer to check if these drugs are enriching T stem cells showing surface expression of CD8+CD45RA+CCR7+CD62L+.
as §6, §7, §8, §9
as §11, with “14” for “13”, “above” for “above (1-21)”, “(5 ul/100 ul/sample” for “(5% Y/100 μl/sample”, “PBS+1%” for “PBS+100”, “enriching for” for “enriching”, “T” for “T stem”

[4] = test system: CD45RA+CCR7+CD62L+ T cells; assay: Flow cytometry for CD45RA, CCR7 and CD62L on inhibitor-treated T cells (all T cells); conditions: cells cultured for 14 days
Protocol: as §2, §11, §6, §7, §8, §9
as §11, with “14” for “13”, “above” for “above (1-21)”, “(5 ul/100 ul/sample” for “(5% Y/100 μl/sample”, “PBS+1%” for “PBS+100”, “enriching for” for “enriching”, “T” for “T stem”

SMILES	p2: pgp+ from Live cells ([1]; 100 nM)	p2: pgp+ from Live cells ([1]; 500 nM)	p5: double +ve pgp+ and CD62L-APC+ from Live cells ([2]; 100 nM)	p5: double +ve pgp+ and CD62L-APC+ from Live cells ([2]; 500 nM)	GATE P4 CD8(PerCP)+, CD45RA(FITC)+, CCR7 (PE)+, CD62L(APC) ([3]; 100 nM) [%]	GATE P4 CD8(PerCP)+, CD45RA(FITC)+, CCR7 (PE)+, CD62L(APC) ([3]; 500 nM) [%]	GATE P6 CD45RA(FITC)+, CCR7 (PE)+, CD62L(APC) ([4]; 100 nM) [%]	GATE P6 CD45RA(FITC)+, CCR7 (PE)+, CD62L(APC) ([4]; 500 nM) [%]	p2: pgp+ from Live cells ([1]; 1 μM)	p5: double +ve pgp+ and CD62L-APC+ from Live cells ([2]; 1 μM)	GATE P4 CD8(PerCP)+, CD45RA(FITC)+, CCR7 (PE)+, CD62L(APC) ([3]; 1 μM) [%]	GATE P6 CD45RA(FITC)+, CCR7 (PE)+, CD62L(APC) ([4]; 1 μM) [%]	p2: pgp+ from Live cells ([1]; 200 nM)	p5: double +ve pgp+ and CD62L-APC+ from Live cells ([2]; 200 nM)	GATE P4 CD8(PerCP)+, CD45RA(FITC)+, CCR7 (PE)+, CD62L(APC) ([3]; 200 nM) [%]	GATE P6 CD45RA(FITC)+, CCR7 (PE)+, CD62L(APC) ([4]; 200 nM) [%]	p2: pgp+ from Live cells ([1]; 500 (unit not given))	p5: double +ve pgp+ and CD62L-APC+ from Live cells ([2]; 500 (unit not given))
COc1cc(-c2cn(C)c(=O)c3cnccc23)c(OC)cc1CN(C)C [B9564]	13.39	15.56	2.53	3.03	73.18	83.31	63.27	73.75	–	–	–	–	–	–	–	–	–	–
CCc1sc(N)nc1-c1ccc(OC)cc1 [CBFB]	–	16.01	–	2.85	–	74.77	–	64.71	20.93	3.56	74.12	65.61	–	–	–	–	–	–
CCS(=O)(=O)N1CCC([C@@H](C)n2c(C)c(C(=O)NCc3c(OC)cc(C)[nH]c3=O)c3ccccc32)CC1 [CP1169]	25.52	–	4.68	–	81.07	–	70.48	–	–	–	–	–	30.65	6.4	75.83	66.23	–	–
COc1cc(C)[nH]c(=O)c1CNC(=O)c1c(C)n([C@H](C)C2CCOCC2)c2ccccc12 [CPI360]	25.15	–	5.82	–	81.01	81.26	70.85	69.62	–	–	–	–	–	–	–	–	35.55	11.11
CS(=O)(=O)c1ccc(-c2cnc(NCc3ccco3)n3cnnc23)cc1 [EED226]	–	37.6	–	10.41	–	70.21	–	60.45	43.53	11.82	74.83	60.45	–	–	–	–	–	–
CCN(c1cc(C#CCN2CCOCC2)cc(C(=O)NCc2c(C)cc(C)[nH]c2=O)c1C)[C@H]1CC[C@H](N(C)CCOC)CC1 [EPZ011989]	–	64.39	–	18.77	–	70.63	–	57.62	62.54	16.8	72.83	58.31	–	–	–	–	–	–
CC[C@H](C)n1cc(C)c2c(C(=O)NCc3c(C)cc(C)[nH]c3=O)cc(-c3ccc(N4CCNCC4)nc3)cc21 [GSK126]	36.37	26.61	8.83	8.08	76.44	79.6	67.75	67.65	–	–	–	–	–	–	–	–	–	–
